Values after ≈ are worked out from the molar mass of the structure shown.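 Exposure lasted 48 hours, with cells grown in 96-well plates and compounds tested at five concentrations. Here, GI50 denotes the concentration required for 50% inhibition of growth. TGI denotes the concentration required for complete inhibition of growth.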 Non-standard residues stand in square brackets, D forms with d. Residues, ends and D or L forms follow the SMILES beside them. ξ: configuration not given here. *: point of attachment. Boc = CC(C)(C)OC(=O)*; ξV = CC(C)C(N)C(=O)O; OBn = c1ccc(CO*)cc1
Experiments:
Assay in all cases: NCI anticancer screen, dose series, 48 h
NCI-H460 lung = tested on: NCI-H460 lung
CAKI-1 renal = tested on: CAKI-1 renal
HOP-92 NSCLC = tested on: HOP-92 NSCLC
PC-3 prostate = tested on: PC-3 prostate
LOX IMVI melanoma = tested on: LOX IMVI melanoma
A498 renal = tested on: A498 renal
DU-145 prostate = tested on: DU-145 prostate
SK-MEL-2 melanoma = tested on: SK-MEL-2 melanoma
K-562 leukemia = tested on: K-562 leukemia
SF-295 CNS = tested on: SF-295 CNS
EKVX NSCLC = tested on: EKVX NSCLC
COLO 205 colon = tested on: COLO 205 colon
HCT-15 colon = tested on: HCT-15 colon
HCT-116 colon = tested on: HCT-116 colon
U251 CNS = tested on: U251 CNS
SF-539 CNS = tested on: SF-539 CNS
786-0 renal = tested on: 786-0 renal
TK-10 renal = tested on: TK-10 renal
MDA-MB-435 = tested on: MDA-MB-435
HCC-2998 colon = tested on: HCC-2998 colon
IGROV1 ovarian = tested on: IGROV1 ovarian
SNB-19 CNS = tested on: SNB-19 CNS
OVCAR-8 ovarian = tested on: OVCAR-8 ovarian
MDA-N = tested on: MDA-N
OVCAR-3 ovarian = tested on: OVCAR-3 ovarian
ACHN renal = tested on: ACHN renal
M14 melanoma = tested on: M14 melanoma
T-47D breast = tested on: T-47D breast
MDA-MB-231 breast = tested on: MDA-MB-231 breast
MCF7 breast = tested on: MCF7 breast
NCI/ADR-RES ovarian = tested on: NCI/ADR-RES ovarian
CCRF-CEM leukemia = tested on: CCRF-CEM leukemia
HOP-62 NSCLC = tested on: HOP-62 NSCLC
SF-268 CNS = tested on: SF-268 CNS
MALME-3M melanoma = tested on: MALME-3M melanoma
UACC-62 melanoma = tested on: UACC-62 melanoma
OVCAR-4 ovarian = tested on: OVCAR-4 ovarian
OVCAR-5 ovarian = tested on: OVCAR-5 ovarian
SR leukemia = tested on: SR leukemia
UO-31 renal = tested on: UO-31 renal
HL-60(TB) leukemia = tested on: HL-60(TB) leukemia
UACC-257 melanoma = tested on: UACC-257 melanoma
RPMI-8226 leukemia = tested on: RPMI-8226 leukemia
SN12C renal = tested on: SN12C renal
SK-MEL-28 melanoma = tested on: SK-MEL-28 melanoma
HT29 colon = tested on: HT29 colon
SW-620 colon = tested on: SW-620 colon
NCI-H522 lung = tested on: NCI-H522 lung
KM12 colon = tested on: KM12 colon
HS 578T breast = tested on: HS 578T breast
MOLT-4 leukemia = tested on: MOLT-4 leukemia
RXF 393 renal = tested on: RXF 393 renal
A549 NSCLC = tested on: A549 NSCLC
BT-549 breast = tested on: BT-549 breast
SK-MEL-5 melanoma = tested on: SK-MEL-5 melanoma
NCI-H23 lung = tested on: NCI-H23 lung
SK-OV-3 ovarian = tested on: SK-OV-3 ovarian
NCI-H226 lung = tested on: NCI-H226 lung

## CSC(=NCCCCN=C(NS(=O)(=O)c1ccc(Cl)cc1)SC)NS(=O)(=O)c1ccc(Cl)cc1
NCI-H460 lung
  TGI: > 100 µM
CAKI-1 renal
  TGI: > 100 µM
HOP-92 NSCLC
  TGI: > 100 µM
PC-3 prostate
  TGI: > 100 µM
LOX IMVI melanoma
  TGI: > 100 µM
A498 renal
  TGI: > 100 µM
DU-145 prostate
  TGI: > 100 µM
SK-MEL-2 melanoma
  TGI: > 100 µM
K-562 leukemia
  TGI: > 100 µM
SF-295 CNS
  TGI: > 100 µM
EKVX NSCLC
  TGI: > 100 µM
COLO 205 colon
  TGI: > 100 µM
HCT-15 colon
  TGI: > 100 µM
HCT-116 colon
  TGI: > 100 µM
U251 CNS
  TGI: > 100 µM
SF-539 CNS
  TGI: > 100 µM
786-0 renal
  TGI: > 100 µM
TK-10 renal
  TGI: > 100 µM
MDA-MB-435
  TGI: > 100 µM
HCC-2998 colon
  TGI: > 100 µM
IGROV1 ovarian
  TGI: > 100 µM
SNB-19 CNS
  TGI: > 100 µM
OVCAR-8 ovarian
  TGI: > 100 µM
MDA-N
  TGI: > 100 µM
OVCAR-3 ovarian
  TGI: > 100 µM
ACHN renal
  TGI: > 100 µM
M14 melanoma
  TGI: > 100 µM
T-47D breast
  TGI: > 100 µM
MDA-MB-231 breast
  TGI: > 100 µM
MCF7 breast
  TGI: > 100 µM
NCI/ADR-RES ovarian
  TGI: > 100 µM
CCRF-CEM leukemia
  TGI: > 100 µM
HOP-62 NSCLC
  TGI: > 100 µM
SF-268 CNS
  TGI: > 100 µM
MALME-3M melanoma
  TGI: > 100 µM
UACC-62 melanoma
  TGI: > 100 µM
OVCAR-4 ovarian
  TGI: > 100 µM
OVCAR-5 ovarian
  TGI: > 100 µM
SR leukemia
  TGI: > 100 µM
UO-31 renal
  TGI: > 100 µM
HL-60(TB) leukemia
  TGI: > 100 µM
UACC-257 melanoma
  TGI: > 100 µM
RPMI-8226 leukemia
  TGI: > 100 µM
SN12C renal
  TGI: > 100 µM
SK-MEL-28 melanoma
  TGI: > 100 µM
HT29 colon
  TGI: > 100 µM
SW-620 colon
  TGI: > 100 µM

## CC(C)C(NC(=O)OC(C)(C)C)C(=O)NCC(=O)OCc1ccccc1 (configuration not stated) (Boc-[ξV]-Gly-OBn)
SK-MEL-2 melanoma
  GI50: 22.5 µg/mL (≈ 61.7 µM)
  TGI: 69.2 µg/mL
NCI-H522 lung
  GI50: 30 µg/mL (≈ 82.2 µM)
K-562 leukemia
  GI50: 18.3 µg/mL (≈ 50.3 µM)
  TGI: 75.1 µg/mL
COLO 205 colon
  GI50: 19.7 µg/mL (≈ 53.9 µM)
  TGI: 40.9 µg/mL
HCT-15 colon
  GI50: 31.9 µg/mL (≈ 87.6 µM)
HCT-116 colon
  GI50: 22 µg/mL (≈ 60.3 µM)
  TGI: 52.6 µg/mL
U251 CNS
  GI50: 94.9 µg/mL (≈ 260 µM)
786-0 renal
  GI50: 24 µg/mL (≈ 65.9 µM)
  TGI: 71.9 µg/mL
MDA-MB-435
  GI50: 44.5 µg/mL (≈ 122 µM)
HCC-2998 colon
  GI50: 48.2 µg/mL (≈ 132 µM)
KM12 colon
  GI50: 51.9 µg/mL (≈ 142 µM)
MDA-N
  GI50: 57.5 µg/mL (≈ 158 µM)
OVCAR-3 ovarian
  GI50: 48.8 µg/mL (≈ 134 µM)
M14 melanoma
  GI50: 35.9 µg/mL (≈ 98.4 µM)
MDA-MB-231 breast
  GI50: 43 µg/mL (≈ 118 µM)
MCF7 breast
  GI50: 87 µg/mL (≈ 239 µM)
CCRF-CEM leukemia
  GI50: 0.594 µg/mL (≈ 1.63 µM)
  TGI: 30.8 µg/mL
HS 578T breast
  GI50: 98.2 µg/mL (≈ 269 µM)
MOLT-4 leukemia
  GI50: 52.7 µg/mL (≈ 145 µM)
HL-60(TB) leukemia
  GI50: 17.3 µg/mL (≈ 47.5 µM)
  TGI: 44.2 µg/mL
RPMI-8226 leukemia
  GI50: 36.1 µg/mL (≈ 99 µM)
  TGI: 86.1 µg/mL

## COc1cccc2c(NNc3ccccc3)c3ccc([N+](=O)[O-])cc3nc12
NCI-H460 lung
  TGI: > 100 µM
CAKI-1 renal
  TGI: > 100 µM
RXF 393 renal
  TGI: > 100 µM
HOP-92 NSCLC
  TGI: > 100 µM
PC-3 prostate
  TGI: > 100 µM
LOX IMVI melanoma
  TGI: > 100 µM
A549 NSCLC
  TGI: > 100 µM
A498 renal
  TGI: > 100 µM
DU-145 prostate
  TGI: > 100 µM
SK-MEL-2 melanoma
  TGI: > 100 µM
NCI-H522 lung
  TGI: > 100 µM
BT-549 breast
  TGI: 71.4 µM
K-562 leukemia
  TGI: > 100 µM
SF-295 CNS
  TGI: > 100 µM
EKVX NSCLC
  TGI: > 100 µM
COLO 205 colon
  TGI: > 100 µM
HCT-15 colon
  TGI: > 100 µM
HCT-116 colon
  TGI: > 100 µM
U251 CNS
  TGI: > 100 µM
SF-539 CNS
  TGI: > 100 µM
786-0 renal
  TGI: 73.3 µM
TK-10 renal
  TGI: > 100 µM
MDA-MB-435
  TGI: > 100 µM
HCC-2998 colon
  TGI: > 100 µM
IGROV1 ovarian
  TGI: > 100 µM
KM12 colon
  TGI: 46.1 µM
SNB-19 CNS
  TGI: > 100 µM
OVCAR-8 ovarian
  TGI: > 100 µM
MDA-N
  TGI: > 100 µM
OVCAR-3 ovarian
  TGI: > 100 µM
ACHN renal
  TGI: > 100 µM
SK-MEL-5 melanoma
  TGI: > 100 µM
M14 melanoma
  TGI: > 100 µM
T-47D breast
  TGI: > 100 µM
MDA-MB-231 breast
  TGI: > 100 µM
MCF7 breast
  TGI: > 100 µM
NCI/ADR-RES ovarian
  TGI: > 100 µM
CCRF-CEM leukemia
  TGI: > 100 µM
HOP-62 NSCLC
  TGI: > 100 µM
MOLT-4 leukemia
  TGI: 5.84 µM
SF-268 CNS
  TGI: > 100 µM
MALME-3M melanoma
  TGI: > 100 µM
UACC-62 melanoma
  TGI: > 100 µM
NCI-H23 lung
  TGI: > 100 µM
OVCAR-4 ovarian
  TGI: > 100 µM
OVCAR-5 ovarian
  TGI: > 100 µM
SR leukemia
  TGI: 50.5 µM
UO-31 renal
  TGI: 61 µM
UACC-257 melanoma
  TGI: > 100 µM
SK-OV-3 ovarian
  TGI: > 100 µM
RPMI-8226 leukemia
  TGI: > 100 µM
NCI-H226 lung
  TGI: > 100 µM
SN12C renal
  TGI: > 100 µM
SK-MEL-28 melanoma
  TGI: > 100 µM
HT29 colon
  TGI: > 100 µM
SW-620 colon
  TGI: > 100 µM

Source: PubChem BioAssay (NCI)
